Measured values from patent publication US20110105349A1, “USE OF A MONOPHOSPHATE ESTER OF A PHTHALEIN COMPOUND AS A SUBSTRATE FOR TARTRATE-RESISTANT ACID PHOSPHATASE B5 (TRAP 5B)” (MUNODIAGNOSTIC SYSTEMS LIMITED, priority 2008, published 2011).
“And” between values parts separate entries of the source, which are not always exact repeats. Equal entries are not always repeated. “Also recorded” adds a separate entry of the source. One block for each compound: values may come before it.

Columns and labels:
[1] = tested on: TRAP5b; test: Time course of substrate hydrolysis on O1A-coated plates (Example 1, FIG. 1); format: biochemical, human; conditions: for specific activity of TRAP5b relative to that of TRAP5a: pH 7.0, from FIG. 1; for hydrolysis of substrate by TRAP5b: serum-derived TRAP5b, neutral pH (7.0) in Example 1
Description: (§1) Microtitre plates (Nunc Maxisorp) were coated with mouse anti-TRAP5 (clone O1A), from a solution of a 3.0 mg/L purified Mab IgG in 10 mM phosphate buffered saline (PBS), 100 μL per well and incubated overnight at room temperature. The coated plates were washed three times with 10 mM phosphate buffered saline, 0.05% Tween 20. A stabilising reagent of 5% lactose, 0.5% BSA was added, 250 μL per well, incubated for at least 10 minutes, then the liquid aspirated. The coated plates were dried overnight at 35° C. then stored at 2-8° C. protected from moisture.
(§2) Serum-derived TRAP5a and TRAP5b were separated by ion exchange chromatography using a modification of the procedure described by Lam et al, Clin. Chem. 24(7):1105-1108, 1978. 100-500 mL human serum was adjusted to around pH 5.0 with 100% acetic acid, and optionally diluted with an equal volume of 10 mM sodium phosphate buffer, pH 4.9. After clarification by centrifugation and filtering, the acidified serum was applied to a 1 cm×100-150 cm column of CM-Sepharose (Sigma, part No CCF 100) and the column was developed with a linear NaCl gradient, from 150-800 mM. Fractions containing TRAP5a and TRAP5b activity were identified using a non-capture assay essentially as described by Lam et al Clin. Chem. 24(7):1105-1108, 1978. In some instances the fractions were further assayed for TRAP5 by the immunoassays described below. Fractions containing peak levels of TRAP5a or TRAP5b were separately pooled for further analysis.
(§3) The TRAP5 protein concentration in the TRAP5a and TRAP5b preparations was determined by a sandwich immunoassay. 100-200 μL sample per well was applied to O1A-coated microtitre plates and incubated overnight at 4° C. The plate was washed three times with 10 mM phosphate buffered saline, 0.05% Tween 20, and 100-200 μL of a solution containing the rabbit anti-TRAP5 antibody at a dilution of 1:4000 was added per well. […] The reactions were stopped by the addition of 100 μL 0.5M HCl and the absorbance at 450 nm was measured. TRAP5 protein concentrations were calculated by reference to a calibration curve prepared from baculovirus-derived recombinant human TRAP5.
(§4) To test for activity towards PTMP, 100 μL of a solution containing 6 mg/mL PTMP dissolved in 125 mM MOPS buffer, pH 7.0 was added per well and incubated for 0-40 min at 37° C. The reactions were stopped at the times indicated by the addition of 50 μL per well of 1M glycine/NaOH, pH11 and the absorbance at […] was measured. […] The reactions were stopped at the times indicated by the addition of 50 μL per well of 0.25 M NaOH and the absorbance at […] was measured.

[2] = tested on: TRAP5b; test: Activity with phthalein monophosphate esters at 0.47 mg/mL, pH 7.4 (Example 8); format: biochemical, human; set-up: 5b Activity: unit not given here; conditions: 0.47 mg/mL in 100 mM MES pH7.4
Description: (§5) To test for activity towards PTMP, 100 μL of a solution containing 6 mg/mL PTMP dissolved in 125 mM MOPS buffer, pH 7.0 was added per well and incubated for 0-40 min at 37° C. The reactions were stopped at the times indicated by the addition of 50 μL per well of 1M glycine/NaOH, pH11 and the absorbance at […] was measured. To test for activity towards TTMP, 100 μL of a solution containing 5 mg/mL TTMP dissolved in 80 mM MOPS buffer, 10% ethanol, pH 7.0 was added per well and incubated for 0-40 min at 37° C. The reactions were stopped at the times indicated by the addition of 50 μL per well of 0.25 M NaOH and the absorbance at […] was measured.
(§6) Where phthalein monophosphate esters were not available commercially, the monophosphate esters were prepared by the method of Bulbenko & Woodbridge (U.S. Pat. No. 4,045,290) by reaction of the appropriate phthalein compound (from Sigma-Aldrich) with phosphorus oxychloride (CAS 10025-87-3), followed by hydrolysis and purification. The monophosphate esters were further purified before use by HPLC chromatography to remove un-reacted phthalein dye. HPLC column 10 mm×150 mm ACE 5 C18 (Advance Chromatography Technologies, UK), load solvent composition, 30% methanol and 70% water containing 0.1% trifluoroacetic acid (TFA); product was eluted by a gradient from 30% methanol 0.1% TFA to 100% methanol 0.1% TFA at 3 mL/minute over 45 minutes.
(§7) Phthalein monophosphate esters prepared in Example 7 were diluted to 0.47 mg/mL in 100 mM MES pH7.4 buffer and applied to an assay as in Example 1.

[3] = molecular target: T1, TRAP5a (Homo sapiens, UniProt P13686); test: Time course of substrate hydrolysis on O1A-coated plates (Example 1, FIG. 1); format: biochemical; conditions: serum-derived TRAP5a; neutral pH (7.0) in Example 1
T1 construct: Serum-derived TRAP5a and TRAP5b were separated by ion exchange chromatography; from tissue; host or cells: human serum
T1 sequence (P13686 22-325): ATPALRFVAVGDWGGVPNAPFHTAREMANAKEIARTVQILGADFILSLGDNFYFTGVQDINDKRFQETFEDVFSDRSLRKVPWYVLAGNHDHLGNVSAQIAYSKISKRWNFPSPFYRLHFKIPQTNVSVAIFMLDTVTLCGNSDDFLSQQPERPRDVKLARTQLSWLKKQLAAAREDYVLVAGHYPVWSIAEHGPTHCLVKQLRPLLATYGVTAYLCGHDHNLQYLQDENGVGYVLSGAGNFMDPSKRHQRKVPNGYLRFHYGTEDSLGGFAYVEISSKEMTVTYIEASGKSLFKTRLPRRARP
Description: as §1, with “moisture. […]” for “moisture.”
The TRAP5 protein concentration in the TRAP5a and TRAP5b preparations was determined by a sandwich immunoassay. […] The reactions were stopped by the addition of 100 μL 0.5M HCl and the absorbance at 450 nm was measured. TRAP5 protein concentrations were calculated by reference to a calibration curve prepared from baculovirus-derived recombinant human TRAP5.
as §4

[4] = molecular target: T1, TRAP5a; test: TRAP5 capture immunoassay, specific activity with each substrate (Example 3); format: biochemical; conditions: for TRAP5 Specific Activity 5A: serum-derived TRAP5a, pNPP at pH 6.1, PTMP and TTMP at pH 7.0
Description: as §1, §2, §3, §4
TRAP5a and TRAP5b preparations were prepared and quantified with respect to TRAP5 mass as described in Example 3. […]

[5] = molecular target: T1, TRAP5a; test: Activity with phthalein monophosphate esters at 0.47 mg/mL, pH 7.4 (Example 8); format: biochemical; set-up: unit not given beside the values; conditions: 0.47 mg/mL in 100 mM MES pH7.4
Description: as §5, §6, §7

[6] = tested on: TRAP5b; test: pH vs activity profile (Example 2, FIG. 2); format: biochemical, human; conditions: substrate 6 mg/mL in MES or MOPS buffers
Description: (§8) Since TRAP5 is an acid phosphatase that normally is only active under acidic conditions, the relationship between TRAP5a and TRAP5b enzyme activity and substrate pH using PTMP as substrate over a range of pH values was investigated. The TRAP5 assays were performed essentially as described for Example 1, except that the PTMP substrate was dissolved at 6 mg/mL in a series of 100 mM MES or 100 mM MOPS buffers to give the pH values indicated.

[7] = molecular target: T1, TRAP5a; test: pH vs activity profile (Example 2, FIG. 2); format: biochemical; conditions: substrate 6 mg/mL in MES or MOPS buffers
Description: as §8

[8] = molecular target: T1, TRAP5a; test: Assay of CM-Sepharose fractions of normal human serum with pNPP- and PTMP-based assays (Example 4, FIG. 3); format: biochemical
Source text: TRAP5a and TRAP5b from normal human serum were separated on a CM-Sepharose column and the fractions assessed for TRAP5b using the pNPP and PTMP-based assays described in Example 3.

[9] = tested on: TRAP5b; test: TRAP5 capture immunoassay, specific activity with each substrate (Example 3); format: biochemical, human; conditions: for Ratio 5B:5A of specific activity / TRAP5 Specific Activity 5B: pNPP at pH 6.1, PTMP and TTMP at pH 7.0; for specificity for TRAP5b over TRAP5a compared with the commercial pNPP based assay: relative to pNPP-based assay; for TRAP5 Specific Activity 5B: serum-derived TRAP5b
Description: as §1, §2
The TRAP5 protein concentration in the TRAP5a and TRAP5b preparations was determined by a sandwich immunoassay. 100-200 μL sample per well was applied to O1A-coated microtitre plates and incubated overnight at 4° C. The plate was washed three times with 10 mM phosphate buffered saline, 0.05% Tween 20, and 100-200 μL of a solution containing the rabbit anti-TRAP5 antibody at a dilution of 1:4000 was added per well. After 60 min incubation at ambient temperature the plate was washed as above and 100-200 μL of a solution containing anti-rabbit IgG-Horseradish peroxidase conjugate at a dilution of 1:5000 was added and incubated for 30 min at ambient temperature. After further washing as described above […] of TMB (BioFx Inc, part TMBW-0100-01) was added and incubated for 30 min at ambient temperature. The reactions were stopped by the addition of 100 μL 0.5M HCl and the absorbance at 450 nm was measured. TRAP5 protein concentrations were calculated by reference to a calibration curve prepared from baculovirus-derived recombinant human TRAP5.
as §5
TRAP5a and TRAP5b preparations were prepared and quantified with respect to TRAP5 mass as described in Example 3. A set of TRAP5 calibrators was prepared by incubating 225 μg baculovirus-derived recombinant human TRAP with 12 U chymotrypsin for 6 h at ambient temperature, preparing a series of dilutions from this material and assigning TRAP5 concentrations (in U/L) to these dilutions using the commercial TRAP5b immunoassay based on WO1999/050662. The TRAP5a and TRAP5b preparations were assayed by a commercial TRAP5b immunoassay based on WO1999/050662 which uses pNPP as substrate at pH 6.1 with the modification that the chymotrypsin-treated calibrators described above were substituted for those provided by the manufacturer. […]

[10] = tested on: TRAP5b; conditions: cited from earlier work; for pH optimum of TRAP5b: WO1999/050662 (pNPP), EP1598670 (2-chloro-4-nitrophenylphosphate)

Compound: O=C1OC(c2ccc(O)cc2)(c2ccc(OP(=O)(O)O)cc2)c2ccccc21 (stereo not shown) [PTMP, Phenolphthalein monophosphate]
specific activity of TRAP5b relative to that of TRAP5a [1]: approximately 50 times
hydrolysis of substrate by TRAP5b [1]: readily hydrolyze; also recorded: hydrolised
5b Activity [2]: 0.3664
Ratio of 5b:5a activity [2]: 33.3
hydrolysis of substrate by TRAP5a [3]: readily hydrolyze; also recorded: hydrolised
TRAP5a detected, as share of the TRAP5a detected by the pNPP-based assay ([4]; from specific activities, PTMP pH 7.0 vs pNPP pH 6.1): 20%
TRAP5 Specific Activity 5A [4]: 0.035 U/μg
5a Activity [5]: 0.0110
pH of maximal activity (pH optimum) of TRAP5b [6]: 7.0 pH
pH of maximal activity (pH optimum) of TRAP5a [7]: ~6.0 pH
TRAP5a detected, as share of the TRAP5a detected by the pNPP-based assay ([8]; peak TRAP5a fraction 53): 16%
Ratio 5B:5A of specific activity [9]: 47.5
specificity for TRAP5b over TRAP5a compared with the commercial pNPP based assay [9]: ~4.75 fold
TRAP5 Specific Activity 5B [9]: 1.68 U/μg

Compound: O=P(O)(O)Oc1ccc(C2(c3ccc(O)c(Cl)c3)OS(=O)(=O)c3ccccc32)cc1Cl (stereo not shown) [Chlorophenol Red, Chlorophenol Red monophosphate]
5b Activity [2]: 0.3558
Ratio of 5b:5a activity [2]: 53.1
5a Activity [5]: 0.0067

Compound: Cc1cc(O)c(C(C)C)cc1C1(c2cc(C(C)C)c(OP(=O)(O)O)cc2C)OC(=O)c2ccccc21 (stereo not shown) [TTMP, Thymolphthalein monophosphate]
specific activity of TRAP5b relative to that of TRAP5a [1]: approximately 70 times
hydrolysis of substrate by TRAP5b [1]: readily hydrolyze; also recorded: hydrolised
hydrolysis of substrate by TRAP5a [3]: readily hydrolyze; also recorded: hydrolised
TRAP5 Specific Activity 5A [4]: 0.035 U/μg
Ratio 5B:5A of specific activity [9]: 65.3
specificity for TRAP5b over TRAP5a compared with the commercial pNPP based assay [9]: ~6.5 fold
TRAP5 Specific Activity 5B [9]: 2.3 U/μg

Compound: O=[N+]([O-])c1ccc(OP(=O)(O)O)cc1 [pNPP, p-nitrophenyl phosphate, reference compound]
pH optimum of TRAP5b [10]: ~5.9 pH
TRAP5 Specific Activity 5A [4]: 0.177 U/μg
share of the material measured as TRAP5b that is actually TRAP5a ([8]; normal human serum, CM-Sepharose fractions): around 40%
Ratio 5B:5A of specific activity [9]: 9 and 9.04
TRAP5 Specific Activity 5B [9]: 1.60 U/μg

Compound: O=P(O)(O)Oc1ccc(C2(c3ccc(O)cc3)OS(=O)(=O)c3ccccc32)cc1 (stereo not shown) [Phenol Red, Phenol Red monophosphate]
5b Activity [2]: 0.3558
Ratio of 5b:5a activity [2]: 53.1
5a Activity [5]: 0.0067

Compound: O=[N+]([O-])c1ccc(OP(=O)(O)O)c(Cl)c1 [2-chloro-4-nitrophenylphosphate]
relative activity for TRAP 5b over TRAP 5a compared with WO1999/050662 ([10]; EP 1598670): 0.8 ×
pH optimum of TRAP5b [10]: 6.4 pH

Second part, led by results:

5a Activity [5]: 0.0074
Compound: Cc1cc(C2(c3cc(C)c(OP(=O)(O)O)c(Br)c3)OS(=O)(=O)c3ccccc32)cc(Br)c1O (stereo not shown) [Bromocresol Purple, Bromocresol Purple monophosphate]
5b Activity [2]: 0.4755
Ratio of 5b:5a activity [2]: 64.3

5a Activity [5]: 0.0036
Compound: Cc1c(C2(c3cc(Br)c(OP(=O)(O)O)c(Br)c3C)OS(=O)(=O)c3ccccc32)cc(Br)c(O)c1Br (stereo not shown) [Bromocresol Green, Bromocresol Green monophosphate]
5b Activity [2]: 0.2636
Ratio of 5b:5a activity [2]: 73.2
